Patent US8178506B2, “Oligomeric compounds and compositions for use in modulation of small non-coding RNAs” (Regulus Therapeutics Inc., priority 2003, dated 2012)
In the oligonucleotide strings, read from the 5' end, every base follows the letter of its sugar. An asterisk marks phosphorothioate; unmarked linkages are phosphodiester. Other units and linkages are bracketed, terminal groups are in braces. A string of capitals states the bases alone. e = 2'-O-(2-methoxyethyl) (MOE); [5mC] = 5-methylcytosine

What was measured:
HuVECs = test: Endothelial tube formation assay in HuVECs; settings: 75 nM oligomeric compound
Experimental: In some embodiments, HUVECs are used to measure the effects of oligomeric compounds of the invention on endothelial tube formation activity. The tube formation assay is performed using an in vitro Angiogenesis Assay Kit (Chemicon International, Temecula, Calif.).
Untreated control cells receive LIPOFECTIN™ only.
Approximately fifty hours after transfection, cells are transferred to 96-well plates coated with ECMatrix™ (Chemicon International). Under these conditions, untreated HUVECs form tube-like structures. After an overnight incubation at 37° C., treated and untreated cells are inspected by light microscopy. Tube formation in cells treated with oligomeric compounds is compared to that in untreated control cells. Individual wells are assigned discrete scores from 1 to 5 depending on the extent of tube formation. A score of 1 refers to a well with no tube formation while a score of 5 is given to wells where all cells are forming an extensive tubular network.
In one embodiment, primary human umbilical vein endothelial cells (HuVECs) were used to measure the effects of oligomeric compounds targeted to miRNAs on tube formation activity. HuVECs were routinely cultured in EBM (Clonetics Corporation, Walkersville, Md.) supplemented with SingleQuots supplements (Clonetics Corporation, Walkersville, Md.). […] HuVECs are plated at 3000 cells/well in 96-well plates. One day later, cells are transfected with oligomeric compounds. The tube formation assay is performed using an in vitro Angiogenesis Assay Kit (Chemicon International, Temecula, Calif.).
ISIS 29248 and ISIS 196103 are chimeric 5-10-52′-MOE gapmer oligonucleotides. […] All cytidine residues are 5-methylcytidines. ISIS 342672 (SEQ ID NO: 789) contains 13 mismatches with respect to the mature mir-143 miRNA, and was also used as a negative control. ISIS 342672 is a uniform 2′-MOE phosphorothioate oligomeric compound 22 nucleotides in length. All cytidine residues are 5-methylcytidines.
Oligomeric compound was mixed with LIPOFECTIN™ (Invitrogen Life Technologies, Carlsbad, Calif.) in OPTI-MEM™ (Invitrogen Life Technologies, Carlsbad, Calif.) to achieve a final concentration of 75 nM of oligomeric compound and 2.25 μg/mL LIPOFECTIN™. Before adding to cells, the oligomeric compound, LIPOFECTIN™ and OPTI-MEM™ were mixed thoroughly and incubated for 0.5 hrs. Untreated control cells received LIPOFECTIN™ only. […] Compounds targeted to miRNAs were tested in triplicate, and ISIS 29848 was tested in up to six replicates. […] 100 μL of full growth medium was added to each well. Fifty hours after transfection, cells are transferred to 96-well plates coated with ECMa-trix™ (Chemicon Inter-national). Under these conditions, untreated HuVECs form tube-like structures.

[1] = tested on: BJ, B16-F10, T47D, T47Dp53 and HeLa cells; test: Cell cycle assay (propidium iodide flow cytometry), cell line panel; assay type: cell-based; settings: 150 nM oligomeric compound, 4.5 μg/ml LIPOFECTIN, after 72 hours, propidium iodide flow cytometry
PPARγ = PPARγ mRNA expression in adipocytes (real-time PCR); assay type: cell-based, human; settings: differentiating adipocytes transfected with oligomeric compound
HSL = HSL mRNA expression in adipocytes (real-time PCR); assay type: cell-based, human; settings: differentiating adipocytes transfected with oligomeric compound
aP2 = aP2 mRNA expression in adipocytes (real-time PCR); assay type: cell-based, human; settings: differentiating adipocytes transfected with oligomeric compound; for aP2 mRNA: Table 75
adipocytes = test: Triglyceride accumulation assay in adipocytes; assay type: cell-based, human; settings: differentiating adipocytes transfected with oligomeric compound
Glut4 = Glut4 mRNA expression in adipocytes (real-time PCR); assay type: cell-based, human; settings: differentiating adipocytes transfected with oligomeric compound
HeLa cells = test: Cell cycle assay in HeLa cells; assay type: cell-based, human; settings: HeLa cells, 150 nM oligomeric compound
[2] = 24 hours, relative to untreated control (UTC = 100)
[3] = 48 hours after treatment, relative to untreated control (UTC=100)

## 327914 (antisense eG*e[5mC]*e[5mC]*e[5mC]*eT*eT*eT*eT*eA*eA*e[5mC]*eA*eT*eT*eG*e[5mC]*eA*e[5mC]*eT*eG) [compound 327914]
HuVECs; Table 57
  % Activity Relative to UTC (tube formation): 82.8%
[1]
  G1 (percentage of cells in phase of the cell cycle): 55.8%
  G2/M (percentage of cells in phase of the cell cycle): 15.3%
  S (percentage of cells in phase of the cell cycle): 28.9%
  SubG1 (percentage of cells in phase of the cell cycle): 8.5%
  aneuploid (percentage of cells): 16.2%

## 327968 (antisense e[5mC]*eA*eA*eT*eG*e[5mC]*eA*eA*e[5mC]*eA*eG*e[5mC]*eA*eA*eT*eG*e[5mC]*eA*e[5mC]) [compound 327968]
PPARγ; Table 75
  PPAR gamma mRNA: 79 percentage of untreated control (UTC)
HuVECs; Table 59
  % Activity Relative to UTC (tube formation): 93.3%
HSL; Table 75
  HSL mRNA: 79 percentage of untreated control (UTC)
aP2
  aP2 mRNA: 67 percentage of untreated control (UTC)
adipocytes; Table 75
  TG (triglyceride accumulation): 94 percentage of untreated control (UTC)
Glut4; Table 75
  GLUT4 mRNA: 85 percentage of untreated control (UTC)

## 327962 (antisense eG*e[5mC]*eT*eG*eA*eG*eA*eG*eT*eG*eT*eA*eG*eG*eA*eT*eG*eT*eT*eT*eA*e[5mC]*eA) [compound 327962]
PPARγ; Table 75
  PPAR gamma mRNA: 80 percentage of untreated control (UTC)
HuVECs; Table 59
  % Activity Relative to UTC (tube formation): 53.3%
HSL; Table 75
  HSL mRNA: 77 percentage of untreated control (UTC)
aP2
  aP2 mRNA: 75 percentage of untreated control (UTC)
adipocytes; Table 75
  TG (triglyceride accumulation): 64 percentage of untreated control (UTC)
Glut4; Table 75
  GLUT4 mRNA: 58 percentage of untreated control (UTC)

## 327937 (antisense eG*eA*eT*eT*e[5mC]*eA*e[5mC]*eA*eA*e[5mC]*eA*e[5mC]*e[5mC]*eA*eG*e[5mC]*eT) [compound 327937]
PPARγ
  PPAR gamma mRNA: 92 percentage of untreated control (UTC)
HuVECs; Table 58
  % Activity Relative to UTC (tube formation): 88.9%
HSL
  HSL mRNA: 77 percentage of untreated control (UTC)
aP2
  AP2 mRNA: 76 percentage of untreated control (UTC)
adipocytes
  TG (triglyceride accumulation): 81 percentage of untreated control (UTC)
Glut4
  GLUT4 mRNA: 63 percentage of untreated control (UTC)

## 327879 (antisense eA*eA*e[5mC]*eA*eA*eA*eA*eT*e[5mC]*eA*e[5mC]*eT*eA*eG*eT*e[5mC]*eT*eT*e[5mC]*e[5mC]*eA) [compound 327879]
PPARγ; Table 75
  PPAR gamma mRNA: 81 percentage of untreated control (UTC)
HuVECs; Table 56
  % Activity Relative to UTC (tube formation): 71.4%
HSL; Table 75
  HSL mRNA: 103 percentage of untreated control (UTC)
aP2
  aP2 mRNA: 103 percentage of untreated control (UTC)
adipocytes; Table 75
  TG (triglyceride accumulation): 59 percentage of untreated control (UTC)
Glut4; Table 75
  GLUT4 mRNA: 99 percentage of untreated control (UTC)

## 327898 (antisense eG*eT*eA*eG*eT*eG*e[5mC]*eT*eT*eT*e[5mC]*eT*eA*e[5mC]*eT*eT*eT*eA*eT*eG) [compound 327898]
PPARγ; Table 75
  PPAR gamma mRNA: 101 percentage of untreated control (UTC)
HuVECs; Table 56
  % Activity Relative to UTC (tube formation): 100.0%
HSL; Table 75
  HSL mRNA: 92 percentage of untreated control (UTC)
aP2
  aP2 mRNA: 96 percentage of untreated control (UTC)
adipocytes; Table 75
  TG (triglyceride accumulation): 102 percentage of untreated control (UTC)
Glut4; Table 75
  GLUT4 mRNA: 82 percentage of untreated control (UTC)

## 327960 (antisense eG*eT*e[5mC]*eT*eG*eT*e[5mC]*eA*eA*eT*eT*e[5mC]*eA*eT*eA*eG*eG*eT*e[5mC]*eA*eT) [compound 327960]
PPARγ
  PPAR gamma mRNA: 76 percentage of untreated control (UTC)
HuVECs; Table 59
  % Activity Relative to UTC (tube formation): 53.3%
HSL
  HSL mRNA: 52 percentage of untreated control (UTC)
aP2
  AP2 mRNA: 52 percentage of untreated control (UTC)
adipocytes
  TG (triglyceride accumulation): 47 percentage of untreated control (UTC)
Glut4
  GLUT4 mRNA: 34 percentage of untreated control (UTC)

## 327881 (antisense eA*eA*eA*eA*eG*eA*eG*eA*e[5mC]*e[5mC]*eG*eG*eT*eT*e[5mC]*eA*e[5mC]*eT*eG*eT*eG*eA) [compound 327881]
PPARγ; Table 75
  PPAR gamma mRNA: 98 percentage of untreated control (UTC)
HuVECs; Table 56
  % Activity Relative to UTC (tube formation): 50.0%
HSL; Table 75
  HSL mRNA: 93 percentage of untreated control (UTC)
aP2
  aP2 mRNA: 95 percentage of untreated control (UTC)
adipocytes; Table 75
  TG (triglyceride accumulation): 91 percentage of untreated control (UTC)
Glut4; Table 75
  GLUT4 mRNA: 97 percentage of untreated control (UTC)

## 327891 (antisense eG*eG*e[5mC]*e[5mC]*eG*eT*eG*eA*e[5mC]*eT*eG*eG*eA*eG*eA*e[5mC]*eT*eG*eT*eT*eA) [compound 327891]
PPARγ; Table 75
  PPAR gamma mRNA: 50 percentage of untreated control (UTC)
HuVECs; Table 56
  % Activity Relative to UTC (tube formation): 50.0%
HSL; Table 75
  HSL mRNA: 52 percentage of untreated control (UTC)
aP2
  aP2 mRNA: 56 percentage of untreated control (UTC)
adipocytes; Table 75
  TG (triglyceride accumulation): 22 percentage of untreated control (UTC)
Glut4; Table 75
  GLUT4 mRNA: 47 percentage of untreated control (UTC)

## 327929 (antisense eG*eA*eA*e[5mC]*eA*eG*eA*eT*eA*eG*eT*e[5mC]*eT*eA*eA*eA*e[5mC]*eA*e[5mC]*eT*eG*eG*eG) [compound 327929]
PPARγ; Table 75
  PPAR gamma mRNA: 71 percentage of untreated control (UTC)
HuVECs; Table 58
  % Activity Relative to UTC (tube formation): 51.9%
HSL; Table 75
  HSL mRNA: 68 percentage of untreated control (UTC)
aP2
  aP2 mRNA: 62 percentage of untreated control (UTC)
adipocytes; Table 75
  TG (triglyceride accumulation): 65 percentage of untreated control (UTC)
Glut4; Table 75
  GLUT4 mRNA: 49 percentage of untreated control (UTC)

## 327943 (antisense eT*eA*eT*e[5mC]*eT*eG*e[5mC]*eA*e[5mC]*eT*eA*eG*eA*eT*eG*e[5mC]*eA*e[5mC]*e[5mC]*eT*eT*eA) [compound 327943]
PPARγ; Table 75
  PPAR gamma mRNA: 98 percentage of untreated control (UTC)
HuVECs; Table 58
  % Activity Relative to UTC (tube formation): 81.5%
HSL; Table 75
  HSL mRNA: 109 percentage of untreated control (UTC)
aP2
  aP2 mRNA: 106 percentage of untreated control (UTC)
adipocytes; Table 75
  TG (triglyceride accumulation): 112 percentage of untreated control (UTC)
Glut4; Table 75
  GLUT4 mRNA: 87 percentage of untreated control (UTC)

## 327966 (antisense eA*eT*e[5mC]*e[5mC]*eA*eA*eT*e[5mC]*eA*eG*eT*eT*e[5mC]*e[5mC]*eT*eG*eA*eT*eG*e[5mC]*eA*eG*eT*eA) [compound 327966]
PPARγ; Table 75
  PPAR gamma mRNA: 77 percentage of untreated control (UTC)
HuVECs; Table 59
  % Activity Relative to UTC (tube formation): 40.0%
HSL; Table 75
  HSL mRNA: 56 percentage of untreated control (UTC)
aP2
  aP2 mRNA: 53 percentage of untreated control (UTC)
adipocytes; Table 75
  TG (triglyceride accumulation): 52 percentage of untreated control (UTC)
Glut4; Table 75
  GLUT4 mRNA: 43 percentage of untreated control (UTC)

## 327909 (antisense e[5mC]*e[5mC]*e[5mC]*eA*eA*e[5mC]*eA*eA*e[5mC]*eA*eT*eG*eA*eA*eA*e[5mC]*eT*eA*e[5mC]*e[5mC]*eT*eA) [compound 327909]
PPARγ
  PPAR gamma mRNA: 96 percentage of untreated control (UTC)
HuVECs; Table 57
  % Activity Relative to UTC (tube formation): 96.6%
[1]
  G1 (percentage of cells in phase of the cell cycle): 52.6%
  G2/M (percentage of cells in phase of the cell cycle): 17.3%
  S (percentage of cells in phase of the cell cycle): 30.1%
  SubG1 (percentage of cells in phase of the cell cycle): 7.9%
  aneuploid (percentage of cells): 16.3%
HSL
  HSL mRNA: 130 percentage of untreated control (UTC)
aP2
  AP2 mRNA: 88 percentage of untreated control (UTC)
adipocytes
  TG (triglyceride accumulation): 132 percentage of untreated control (UTC)
Glut4
  GLUT4 mRNA: 132 percentage of untreated control (UTC)

## 327908 (antisense e[5mC]*eA*eA*eT*eG*e[5mC]*eA*eA*e[5mC]*eT*eA*e[5mC]*eA*eA*eT*eG*e[5mC]*eA*e[5mC]) [compound 327908]
HuVECs; Table 57
  % Activity Relative to UTC (tube formation): 103.5%
HeLa cells; [2]
  % cells aneuploid: 114%
  % cells in cell cycle phase G1: 98%
  % cells in cell cycle phase G2/M: 106%
  % cells in cell cycle phase S: 99%
  % cells in cell cycle phase subG1: 138%
HeLa cells; [3]
  % cells in cell cycle phase: G1: 99%
  % cells in cell cycle phase: G2/M: 105%
  % cells in cell cycle phase: S: 98%
  % cells in cell cycle phase: aneuploid: 93%
  % cells in cell cycle phase: subG1: 61%
[1]
  G1 (percentage of cells in phase of the cell cycle): 55.4%
  G2/M (percentage of cells in phase of the cell cycle): 15.3%
  S (percentage of cells in phase of the cell cycle): 29.2%
  SubG1 (percentage of cells in phase of the cell cycle): 5.6%
  aneuploid (percentage of cells): 13.1%
